Laboratory results published in patent publication US10259798B2, “High-purity magnesium lithospermate B and preparation method therefor” (priority 2014, dated 2019).
“Also recorded” adds a separate entry of the source. Where two headings read alike, the source gives them in different places. Marks after values point to notes of the source that are not given here.

Key:
[1] = type: physicochemical; conditions: for 0 h peak area / 2 h peak area / 4 h peak area / 6 h peak area / 8 h peak area / 12 h peak area / 24 h peak area: HPLC 288 nm; for 0 h peak area: 1 mg/mL aqueous solution at 25° C. diluted 10 times, MLB of Example 1; for 2 h peak area / 4 h peak area / 6 h peak area / 8 h peak area / 12 h peak area / 24 h peak area: aqueous solution; for Average peak area: average over 0-24 h
Description: The chemical stability of magnesium lithospermate B was investigated by detecting the variation of peak areas (HPLC). Specific experimental method: lithospermic acid B (lab-made; lot number: 20131017) and magnesium lithospermate B prepared in Example 1 of the present invention were respectively formulated to 1 mg/mL aqueous solution at 25° C., which was then diluted 10 times. The variation of peak areas of lithospermic acid B at 288 nm for durations of 0, 2, 4, 6, 8, 12, and 24 hours were detected by HPLC, respectively. 10 microliters was injected for each time.

[2] = system: lipid oxidation in rat liver microsome; assay: In vitro anti-lipid peroxidation experiment (MDA, TBA method); type: biochemical, SD rat; conditions: 100 μM, 37° C. 90 mins
From the text: Sample and control: magnesium lithospermate B (prepared according to Example 6 of the present application), lithospermic acid B (lab-made; lot number: 20131017), formulated with normal saline prior to use; normal saline as solvent control was from Jiangsu Yabang Pharmaceutical Co., Ltd.; the other reagents were all commercially available analytically pure products. Tris base, potassium chloride, dipotassium phosphate, glycerol, etc. (Sinopharm Chemical Reagent Co., Ltd.); Coomassie brilliant blue G-250, bovine serum albumin (Shanghai Lanji Technology Development Co., Ltd.).
Experimental animal: species and strain: SD rat; source: Shanghai SLAC Laboratory Animal Co., Ltd., Laboratory Animal Production License: SCXK (Shanghai) 2012-0002; number and gender: 2, male; animal weight: 200-250 g.
Steps for preparing liver microsome: liver tissue was taken out, cut into pieces, washed with Buffer A, wiped up, and weighed for 8 g. By adding 10 ml Buffer A per gram of tissue, 80 ml was added in total, followed by automatic homogenization and further homogenization with manual homogenizer. The homogenate was centrifuged at 10,000 g and 4° C. for 30 mins, and the supernatant was taken out. The supernatant was centrifuged at 105,000 g and 4° C. for 60 mins. The resulting precipitate is the microsome, which was then added with Buffer B to obtain microsome suspension, aliquoted into 2 ml small tubes, and stored in −70° C. refrigerator for further use. Determination of protein content: using Bradford method (Coomassie brilliant blue G-250 method).
Determination of lipid oxidation in rat liver microsome: 1 ml liver microsome was added into each tube, followed by addition of different concentrations of reagent solutions. The mixtures were well shaken and incubated in 37° C. water bath for 90 mins. After the tubes were taken out, 1 ml 10% trichloroacetic acid (TCA) and 1 ml 0.67% thiobarbituric acid (TBA) were added into each tube. The tubes were placed in boiling water bath for 15 mins, then cooled with running water and centrifuged at 3000 rpm for 10 mins. The supernatants were taken for colorimetric determination at 532 nm. The contents were calculated with standard tetraethoxypropane and represented with content per mg protein.
Calculation formula: MDA content (nmol/mg prot)={[(Asample−Ablank)÷(Astandard−Ablank)]×10 nmol/ml}÷protein content Inhibition rate %=(MDAblank−MDAsample)/MDAblank×100%

[3] = system: bleeding of severed tails of rats; assay: Bleeding time of severed tails of rats; type: in vivo, SD rat; conditions: for Bleeding time: injection through femoral vein, tail severed 2 mins after administration, cut-off 1800 seconds
From the text: Sample and control: lithospermic acid B, dipotassium lithospermate B, depside salts of Salvia miltiorrhiza (comprising 85% magnesium lithospermate B), magnesium lithospermate B, formulated with normal saline prior to use; normal saline as solvent control was from Jiangsu Yabang Pharmaceutical Co., Ltd.; the other reagents were all commercially available analytically pure products. Experimental animal: species and strain: SD rat; source: Shanghai SLAC Laboratory Animal Co., Ltd., Laboratory Animal Production License: SCXK (Shanghai) 2012-0002; number and gender: 50, male; animal weight: 120-200 g. Dosage setting: the dosages of lithospermic acid type reagents were set as 50 and 100 mg/kg in the present experiment; normal saline was given as additional solvent control. Tail severing time was 2 mins after administration. Administration route and administration dosage of sample and control: administration by injection through femoral vein, 2 ml/kg. Experimental method: the animals were water fasted overnight. 50 mg/kg pentobarbital sodium was intraperitoneally injected for anesthesia prior to the experiment. After anesthesia of the animals, markers were made at 4 mm from tips of rat tails with a marker pen and ruler. Drugs were injected through femoral veins of the animals. 2 mins later, the tails were swiftly severed at marked positions of the animal tails with a scalpel. The remained animal tails were rapidly inserted into prepared normal saline tubes in 37° C. water bath, and timing was started. The bleeding of the animal tails was observed. If no more bleeding was observed within 30 seconds, the time was recorded as coagulation time (unit: second) of the animals. […] Observation indicator and observation time: the indicator was the bleeding time. Statistical method: the experimental data was represented with x±SD; GraphPad Prism 5 1 way ANOVA was applied for significance test.

[4] = system: cardiac myoblast cell H9C2; type: cell-based
From the text: (§1) Sample and control: magnesium lithospermate B (prepared according to Example 6 of the present application), lithospermic acid B (lab made; lot number: 20131017), formulated with normal saline prior to use; normal saline as solvent control was derived from Jiangsu Yabang Pharmaceutical Co., Ltd.; the other reagents were all commercially available analytically pure products. Cell lines and reagents: cardiac myoblast (H9C2); Microvascular Endothelial Cell (HMEC-1); Lactic Dehydrogenase Cytotoxicity Detection Kit, Beyotime Biotechnology Institute. Dosage setting: the dosages of lithospermic acid B and magnesium lithospermate B were set at 10, 50, 100, 200, 400, 800, 1200, 1600 μM and the incubation time was set as 24 hours in the present experiment. Experimental method: H9C2 cells and HMEC-1 cells were respectively incubated in 10% FBS containing low saccharide DMEM medium and MCDB-131 medium, at 37° C. and 5% CO2. Cells were seeded in a 96-well culture plate, which was added with different concentrations of lithospermic acid B solutions and magnesium lithospermate B solutions on the next day (about 80% fusion). After incubation for 24 hours in total, the detection was conducted according to instructions of the Lactic Dehydrogenase Cytotoxicity Detection Kit. Observation indicator and observation time: the observation indicator is the level of lactic dehydrogenase in cells; cell survival rate was represented by intracellular LDH content ratio, i.e. (absorbance of treated sample well−absorbance of sample control well)/(absorbance of cells with maximum enzymatic activity−absorbance of sample control well)×100. Statistical method: the data was presented with average±standard derivation (mean±SD); the comparison of two groups of data was statistically analyzed by student-t test method, P<0.05 indicating statistical difference.

endothelial cell HMEC-1 = type: cell-based
From the text: as §1

| SMILES | 0 h peak area [1] | 2 h peak area [1] | 4 h peak area [1] | 6 h peak area [1] | 8 h peak area [1] | 12 h peak area [1] | 24 h peak area [1] | Average peak area [1] | Inhibition rate (anti-lipid peroxidation, MDA) ([2]; n = 3) [%] | Bleeding time ([3]; 50 mg/kg) | Bleeding time ([3]; 100 mg/kg) | Toxic effect at high dosages, in words [4] | Toxic effect at high dosages, in words (endothelial cell HMEC-1) | also measured |
| --- | --- | --- | --- | --- | --- | --- | --- | --- | --- | --- | --- | --- | --- | --- |
| O=C(/C=C/c1ccc(O)c2c1[C@H](C(=O)O[C@H](Cc1ccc(O)c(O)c1)C(=O)O)[C@@H](c1ccc(O)c(O)c1)O2)O[C@H](Cc1ccc(O)c(O)c1)C(=O)O [Lithospermic acid B, lithospermic acid B, reference compound] | 3957 | 3991 | 3992 | 3983 | 4002 | 3990 | 4000 | 3987.8 | 86.42 | 869 ± 71 s | 1078 ± 137 s | toxic effect | toxic effect | Inhibition rate (anti-lipid peroxidation, MDA) ([2]; n = 3, listed as lithospermic acid B): around 85% |
| O=C(C=Cc1ccc(O)c2c1C(C(=O)OC(Cc1ccc(O)c(O)c1)C(=O)[O-])C(c1ccc(O)c(O)c1)O2)OC(Cc1ccc(O)c(O)c1)C(=O)[O-].[K+].[K+] (stereo not shown) [Dipotassium lithospermate B, dipotassium lithospermate B, reference compound] | – | – | – | – | – | – | – | – | – | 827 ± 70**^$$ second | 1301 ± 189**^$$ second | – | – | – |
| O=C(/C=C/c1ccc(O)c2c1[C@H](C(=O)OC(Cc1ccc(O)c(O)c1)C(=O)[O-])C(c1ccc(O)c(O)c1)O2)O[C@H](Cc1ccc(O)c(O)c1)C(=O)[O-].[Mg+2] (stereo partly shown) [Magnesium lithospermate B, magnesium lithospermate B] | 3611 | 3632 | 3614 | 3636 | 3629 | 3628 | 3599 | 3621.3 | 84.41 | 1098 ± 84 s | 1800 ± 0 s | toxic effect | toxic effect | Inhibition rate (anti-lipid peroxidation, MDA) ([2]; n = 3, listed as magnesium lithospermate B): around 85%; Bleeding time / activity compared with the other test substances, in words ([3]; same dosage, intravenous injection): remarkably longer than lithospermic acid B administration group; also recorded: significantly longer than dipotassium lithospermate B and depside salts of Salvia miltiorrhiza; also recorded: activity superior to the free acid (lithospermic acid B), other salts (dipotassium lithospermate B), and low purity mixtures (salvianolates of Salvia miltiorrhiza); also recorded: better activities than free acid (lithospermic acid B), other salt (dipotassium lithospermate B), and low purity mixture (depside salts of Salvia miltiorrhiza); Concentrations that significantly decreased the intracellular LDH content as compared with normal control wells ([4]; rat, 24 h): 800, 1200, 1600 μM; Intracellular LDH content percent, H9C2 cell ([4]; rat, 24 h, 10 μM): 101.42 ± 2.00%; Intracellular LDH content percent, H9C2 cell ([4]; rat, 24 h, 50 μM): 99.97 ± 1.43%; Intracellular LDH content percent, H9C2 cell ([4]; rat, 24 h, 100 μM): 101.25 ± 2.79%; Intracellular LDH content percent, H9C2 cell ([4]; rat, 24 h, 200 μM): 102.39 ± 1.37%; Intracellular LDH content percent, H9C2 cell ([4]; rat, 24 h, 400 μM): 102.75 ± 3.07%; Intracellular LDH content percent, H9C2 cell ([4]; rat, 24 h, 800 μM): 37.72 ± 7.52 %; Intracellular LDH content percent, H9C2 cell ([4]; rat, 24 h, 1200 μM): 21.59 ± 2.86 %; Intracellular LDH content percent, H9C2 cell ([4]; rat, 24 h, 1600 μM): 14.59 ± 3.05 %; Concentrations that significantly decreased the intracellular LDH content as compared with normal control wells (endothelial cell HMEC-1; human, 24 h): 1200 and 1600 μM; Intracellular LDH content percent, HMEC-1 cell (endothelial cell HMEC-1; human, 24 h, 10 μM): 99.70 ± 3.88%; Intracellular LDH content percent, HMEC-1 cell (endothelial cell HMEC-1; human, 24 h, 50 μM): 101.05 ± 4.77%; Intracellular LDH content percent, HMEC-1 cell (endothelial cell HMEC-1; human, 24 h, 100 μM): 100.96 ± 4.01%; Intracellular LDH content percent, HMEC-1 cell (endothelial cell HMEC-1; human, 24 h, 200 μM): 98.58 ± 0.24%; Intracellular LDH content percent, HMEC-1 cell (endothelial cell HMEC-1; human, 24 h, 400 μM): 97.8 ± 1.03%; Intracellular LDH content percent, HMEC-1 cell (endothelial cell HMEC-1; human, 24 h, 800 μM): 96.93 ± 1.37%; Intracellular LDH content percent, HMEC-1 cell (endothelial cell HMEC-1; human, 24 h, 1200 μM): 96.17 ± 1.00 %; Intracellular LDH content percent, HMEC-1 cell (endothelial cell HMEC-1; human, 24 h, 1600 μM): 84.28 ± 3.28 % |
